# Experimental data published in patent US9693556B2, “Herbicidal pyridazinone derivatives” (SYNGENTA LIMITED, priority 2011, dated 2017).
# Key:
# Assay type in all cases: in vivo
# [1] = tested on: Alopecurus myosuroides (ALOMY); test: Pre-emergence herbicidal glasshouse test on Alopecurus myosuroides; conditions: pre-emergence; 1000 g/h; evaluated after 13 days
# Outline: (§1)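 Read-out: percentage herbicidal damage 13 days after spraying, given on a five-point scale (5=80-100%, 4=60-79%, 3=40-59%, 2=20-39%, 1=0-19%). Pots of standard soil; application at 1000 g/h, one day post-sowing for pre-emergence, eight days for post-emergence.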
# [2] = tested on: Setaria faberi (SETFA); test: Pre-emergence herbicidal glasshouse test on Setaria faberi; conditions: pre-emergence; 1000 g/h; evaluated after 13 days
# Outline: as §1
# [3] = tested on: Echinochloa crus-galli (ECHCG); test: Pre-emergence herbicidal glasshouse test on Echinochloa crus-galli; conditions: pre-emergence; 1000 g/h; evaluated after 13 days
# Outline: as §1
# [4] = tested on: Solanum nigrum (SOLNI); test: Pre-emergence herbicidal glasshouse test on Solanum nigrum; conditions: pre-emergence; 1000 g/h; evaluated after 13 days
# Outline: as §1
# [5] = tested on: Amaranthus retoflexus (AMARE); test: Pre-emergence herbicidal glasshouse test on Amaranthus retoflexus; conditions: pre-emergence; 1000 g/h; evaluated after 13 days
# Outline: as §1
# [6] = tested on: Ipomoea hederacea (IPOHE); test: Pre-emergence herbicidal glasshouse test on Ipomoea hederacea; conditions: pre-emergence; 1000 g/h; evaluated after 13 days
# Outline: as §1
# [7] = tested on: Alopecurus myosuroides (ALOMY); test: Post-emergence herbicidal glasshouse test on Alopecurus myosuroides; conditions: post-emergence; 1000 g/h; evaluated after 13 days
# Outline: as §1
# [8] = tested on: Setaria faberi (SETFA); test: Post-emergence herbicidal glasshouse test on Setaria faberi; conditions: post-emergence; 1000 g/h; evaluated after 13 days
# Outline: as §1
# [9] = tested on: Echinochloa crus-galli (ECHCG); test: Post-emergence herbicidal glasshouse test on Echinochloa crus-galli; conditions: post-emergence; 1000 g/h; evaluated after 13 days
# Outline: as §1
# [10] = tested on: Solanum nigrum (SOLNI); test: Post-emergence herbicidal glasshouse test on Solanum nigrum; conditions: post-emergence; 1000 g/h; evaluated after 13 days
# Outline: as §1
# [11] = tested on: Amaranthus retoflexus (AMARE); test: Post-emergence herbicidal glasshouse test on Amaranthus retoflexus; conditions: post-emergence; 1000 g/h; evaluated after 13 days
# Outline: as §1
# [12] = tested on: Ipomoea hederacea (IPOHE); test: Post-emergence herbicidal glasshouse test on Ipomoea hederacea; conditions: post-emergence; 1000 g/h; evaluated after 13 days
# Outline: as §1
SMILES,PRE Application ALOMY herbicidal damage (five point scale) [1],PRE Application SETFA herbicidal damage (five point scale) [2],PRE Application ECHCG herbicidal damage (five point scale) [3],PRE Application SOLNI herbicidal damage (five point scale) [4],PRE Application AMARE herbicidal damage (five point scale) [5],PRE Application IPOHE herbicidal damage (five point scale) [6],POST Application ALOMY herbicidal damage (five point scale) [7],POST Application SETFA herbicidal damage (five point scale) [8],POST Application ECHCG herbicidal damage (five point scale) [9],POST Application SOLNI herbicidal damage (five point scale) [10],POST Application AMARE herbicidal damage (five point scale) [11],POST Application IPOHE herbicidal damage (five point scale) [12]
C=Cc1cccc(-c2c(C(F)(F)F)ccn(-c3cnn(C)c(=O)c3O)c2=O)c1 [Compound 7.011],2 (2=20-39% damage),2 (2=20-39% damage),1 (1=0-19% damage),5 (5=80-100% damage),5 (5=80-100% damage),2 (2=20-39% damage),1 (1=0-19% damage),3 (3=40-59% damage),5 (5=80-100% damage),5 (5=80-100% damage),5 (5=80-100% damage),3 (3=40-59% damage)
CCCC[S+]([O-])c1ccccc1-c1cnn(C)c(=O)c1O (stereo not drawn) [Compound 1.047],1 (1=0-19% damage),1 (1=0-19% damage),1 (1=0-19% damage),1 (1=0-19% damage),1 (1=0-19% damage),1 (1=0-19% damage),1 (1=0-19% damage),1 (1=0-19% damage),1 (1=0-19% damage),4 (4=60-79% damage),3 (3=40-59% damage),3 (3=40-59% damage)
Cc1c(-c2cnn(C3CCCC3)c(=O)c2O)ccc(S(C)(=O)=O)c1C1=NOCC1 [Compound 1.007],1 (1=0-19% damage),4 (4=60-79% damage),4 (4=60-79% damage),2 (2=20-39% damage),3 (3=40-59% damage),2 (2=20-39% damage),4 (4=60-79% damage),4 (4=60-79% damage),5 (5=80-100% damage),5 (5=80-100% damage),5 (5=80-100% damage),4 (4=60-79% damage)
Cn1ncc(-c2ccc(C(F)(F)F)nc2Cl)c(O)c1=O [Compound 4.014],1 (1=0-19% damage),1 (1=0-19% damage),5 (5=80-100% damage),4 (4=60-79% damage),5 (5=80-100% damage),2 (2=20-39% damage),1 (1=0-19% damage),2 (2=20-39% damage),3 (3=40-59% damage),5 (5=80-100% damage),5 (5=80-100% damage),5 (5=80-100% damage)
Cn1ncc(-n2ccc(-c3ccc(C(F)(F)F)cc3)cc2=O)c(O)c1=O [Compound 1.023],2 (2=20-39% damage),4 (4=60-79% damage),1 (1=0-19% damage),1 (1=0-19% damage),5 (5=80-100% damage),1 (1=0-19% damage),2 (2=20-39% damage),4 (4=60-79% damage),1 (1=0-19% damage),2 (2=20-39% damage),3 (3=40-59% damage),1 (1=0-19% damage)
C=C(C)Cn1cccc(-c2cnn(C)c(=O)c2O)c1=O [Compound 9.007],1 (1=0-19% damage),1 (1=0-19% damage),1 (1=0-19% damage),1 (1=0-19% damage),1 (1=0-19% damage),1 (1=0-19% damage),1 (1=0-19% damage),2 (2=20-39% damage),1 (1=0-19% damage),4 (4=60-79% damage),3 (3=40-59% damage),2 (2=20-39% damage)
Cn1ncc(-c2ccc(C(F)(F)F)cc2[S+](C)[O-])c(O)c1=O (stereo not drawn) [Compound 1.029],5 (5=80-100% damage),5 (5=80-100% damage),5 (5=80-100% damage),5 (5=80-100% damage),5 (5=80-100% damage),5 (5=80-100% damage),5 (5=80-100% damage),5 (5=80-100% damage),5 (5=80-100% damage),5 (5=80-100% damage),5 (5=80-100% damage),5 (5=80-100% damage)
CC(C)N(C)S(=O)(=O)c1ccc(-c2cnn(C)c(=O)c2O)c(S(C)(=O)=O)c1 [Compound 2.038],5 (5=80-100% damage),4 (4=60-79% damage),5 (5=80-100% damage),5 (5=80-100% damage),5 (5=80-100% damage),4 (4=60-79% damage),4 (4=60-79% damage),5 (5=80-100% damage),5 (5=80-100% damage),5 (5=80-100% damage),5 (5=80-100% damage),4 (4=60-79% damage)
Cn1ncc(-c2ccccc2[S+]([O-])C(F)(F)F)c(O)c1=O (stereo not drawn) [Compound 1.055],1 (1=0-19% damage),1 (1=0-19% damage),2 (2=20-39% damage),4 (4=60-79% damage),5 (5=80-100% damage),2 (2=20-39% damage),1 (1=0-19% damage),1 (1=0-19% damage),4 (4=60-79% damage),5 (5=80-100% damage),5 (5=80-100% damage),4 (4=60-79% damage)
Cn1ncc(-c2ccc(F)cc2S(C)(=O)=O)c(O)c1=O [Compound 1.058],5 (5=80-100% damage),5 (5=80-100% damage),5 (5=80-100% damage),5 (5=80-100% damage),5 (5=80-100% damage),5 (5=80-100% damage),5 (5=80-100% damage),5 (5=80-100% damage),5 (5=80-100% damage),5 (5=80-100% damage),5 (5=80-100% damage),5 (5=80-100% damage)
